Results from US7446127B2, “Chroman carboxylic acid derivatives for the treatment of diabetes and lipid disorders” (SK Holdings Co, Ltd., priority 2003, dated 2008).

Key:
STZ rat = experiment: Blood glucose lowering effect in STZ rat; format: in vivo; details: STZ rat (data not shown)
HF rat = experiment: Insulin tolerance test (ITT) in HF rat; format: in vivo, Sprague-Dawley rats; details: 30 mg/kg oral, insulin 0.25 U/kg i.p. 2 hr later
Protocol: An Oral Glucose Tolerance Test (OGTT) was performed both in db/db mice and in high fat (HF) rats after dosing 30 mg/kg/d of compounds of Examples 1 and 2 for 9 days. For OGTT and ITT studies, Sprague-Dawley rats were prepared by feeding high fat (HF) diet (60% calorie from fat) for 6 weeks. Before the study, they were matched into groups on the basis of blood glucose levels. Insulin tolerance test (ITT) was performed in HF rat which were prepared in the same manner with OGTT test animal. On the day of the study, rats were orally dosed with the testing compounds (30 mg/kg) and 2 hr later, rats were dosed with insulin (0.25 U/kg, i.p.) in 0.1% BSA solution in saline. Blood glucose of the rat was measured at 15, 30, 60, 120 min after dose.

high fat (HF) rats = experiment: Oral Glucose Tolerance Test (OGTT) in high fat (HF) rats; format: in vivo, Sprague-Dawley rats; details: 30 mg/kg/d for 9 days
Protocol: An Oral Glucose Tolerance Test (OGTT) was performed both in db/db mice and in high fat (HF) rats after dosing 30 mg/kg/d of compounds of Examples 1 and 2 for 9 days. For OGTT and ITT studies, Sprague-Dawley rats were prepared by feeding high fat (HF) diet (60% calorie from fat) for 6 weeks. Before the study, they were matched into groups on the basis of blood glucose levels.

[1] = test system: differentiated 3T3-L1 adipocytes; experiment: Glucose transport assay (2-deoxy-D-glucose uptake); format: cell-based; details: 48 hr; for Fold Stimulation (50 μM) of 2-deoxy-D-glucose uptake, Insulin + Compound: 50 μM compound + 100 nM insulin; for fold induction at 50 µM: Mus musculus, 50 μM compound alone, read-out: Fold Stimulation (50 μM) of 2-deoxy-D-glucose uptake, Compound only
Protocol: 3T3-L1 fibroblasts (American Type Culture Collection) were plated and grown for 2 days postconfluence in Dulbecco's modified Eagle's medium (DMEM; 4,500 mg/L glucose, HyClone) supplemented 10% FBS, 10 μg/mL penicillin and streptomycin in an atmosphere of 5% CO2 at 37° C. Adipocyte differentiation was then induced using standard protocol. After 48 hr, the differentiation medium was replaced with maintenance medium containing DMEM supplemented with 10% FBS. The maintenance medium was changed every 3 days until the cells were utilized for experimentation. Glucose transport activity was measured in the presence or absence of insulin and the protocol was modified from Kletzien, R F et al. (1992) Molecular Pharmacology 41:393-398. Briefly, differentiated 3T3-L1 adipocytes were incubated with vehicle (DMSO), insulin (100 nM) alone, test compound (50 μM) alone and a combination of insulin (100 nM)+test compound (50 μM) for 48 hr. Medium was changed twice a day in the presence of compound. Glucose uptake was measured using 2-Deoxy-D-[1−^3H] glucose as label after 90 min incubation with each compound. […] In the series of compounds, one of the best result was obtained with 7-[2-(5-methyl-2-phenyl-4-oxazolyl)-ethoxy]-chroman-3-carboxylic acid (Example 1).

[2] = Solubility in dosing vehicle; format: physicochemical
Description: It appeared that compounds of Examples 1 and 2 were not soluble in 0.5% CMC vehicle.

db/db mice [3] = experiment: Oral Glucose Tolerance Test (OGTT) in db/db mice; format: in vivo; details: 30 mg/kg/d for 9 days
Protocol: (§1) Mice used in this study were standard model of type II diabetes developed by Jackson Laboratories (Bar Harbor, Me.). Male, 8-week-old db/db mice were housed six per cage in hanging wire bottom cages with standard laboratory conditions. The mice had free access to normal chow (Purina Rodent Chow) and water. At the age of 11-12 weeks, mice were bled in the tail for glucose matching among the groups (n=6 per group). The grouped mice were then dosed orally with vehicle (CMC) or with compounds of formula I (30 mg/kg/d) for 7 days. Compound of formula I at 30 mg/kg/d was dosed as suspension in 0.5% CMC+0.2% Tween 80 in H2O. Fresh suspension was prepared for 8 days dosing and kept in a refrigerator. The suspension was administered by oral gavage daily in the morning. The control group received vehicle (dose 10 mL/kg). Blood glucose concentrations were monitored at basal and 3 hr post dose on day 4 and 8. For blood sampling, mice were placed in a restrainer and drop of blood was obtained by nick in the tip of the tail. Blood glucose concentrations were determined either by putting a drop of blood on a glucose strip for analysis by a glucometer or using a 10 μL plasma sample in a YSI (Yellow Spring Instruments, OH) analyzer. Results are expressed as absolute blood glucose concentrations (mg/dL) and % reduction that is achieved reduction relative to vehicle treated control group. Animals having more than 300 mg/dL of blood glucose were used for testing. Statistical significance (p<0.05) is given versus the appropriate sample in vehicle treated animals. On day 7, the mice were fasted overnight for 18 hrs and were bled in the tail for the glucose level checking then dosed with the testing compounds (30 mg/kg/d). After 2 hr, blood samples were taken and the rats were dosed with 10% glucose in water (10 ml/kg) orally and blood glucose was monitored at 15, 30, 60, 90 and 120 min after dosing. The blood samples were centrifuged and plasma samples were collected and analyzed for insulin, Tg and FFA. An Oral Glucose Tolerance Test (OGTT) was performed both in db/db mice and in high fat (HF) rats after dosing 30 mg/kg/d of compounds of Examples 1 and 2 for 9 days. For OGTT and ITT studies, Sprague-Dawley rats were prepared by feeding high fat (HF) diet (60% calorie from fat) for 6 weeks. Before the study, they were matched into groups on the basis of blood glucose levels.

db/db mice [4] = experiment: Efficacy test for blood glucose lowering (db/db mice); format: in vivo; details: 30 mg/kg/d oral
Protocol: as §1, with “FFA.” for “FFA. An Oral Glucose Tolerance Test (OGTT) was performed both in db/db mice and in high fat (HF) rats after dosing 30 mg/kg/d of compounds of Examples 1 and 2 for 9 days. For OGTT and ITT studies, Sprague-Dawley rats were prepared by feeding high fat (HF) diet (60% calorie from fat) for 6 weeks. Before the study, they were matched into groups on the basis of blood glucose levels.”

Row | SMILES | Fold Stimulation (50 μM) of 2-deoxy-D-glucose uptake, Insulin + Compound [1] | fold induction at 50 µM [1] | further results
1 | Cc1oc(-c2ccc(-c3ccccc3)cc2)nc1CCOc1ccc2c(c1)OCC(C(=O)O)C2 (stereo not shown) [Example 2, 7-[2-(5-Methyl-2-(4-phenyl)phenyl-4-oxazolyl)ethoxy]chromane-3-carboxylic acid] | 6.4 fold | 1.5 | blood glucose lowering effect (STZ rat): did not reduce blood glucose; AUC of Glucose in high fat rat, % reduction (HF rat): 4.2%; AUC of Glucose in high fat rat, Observed value (HF rat; control 13359): 12796 mg/dl × 120 min; AUC of Glucose in high fat rat, % reduction (high fat (HF) rats): 10.1%; AUC of Glucose in high fat rat, Observed value (high fat (HF) rats; control 14053): 12631 mg/dl × 120 min; solubility in 0.5% CMC vehicle [2]: not soluble; AUC of Glucose in db/db, % reduction (db/db mice [3]): 14.0%; AUC of Glucose in db/db, Observed value (db/db mice [3]; control 40858): 32406 mg/dl × 120 min; Fatty acid % reduction (db/db mice [4]; plasma): −21.1%; Insulin % reduction (db/db mice [4]; plasma): −72.7%; Glucose Max % efficacy (db/db mice [4]; suspension in 0.5% CMC + 0.2% Tween 80): 70.3%; Glucose Observed value (db/db mice [4]; suspension in 0.5% CMC + 0.2% Tween 80, control 261.2): 148.3 mg/dL
2 | Cc1oc(-c2ccc(F)cc2)nc1CCOc1ccc2c(c1)OCC(C(=O)O)C2 (stereo not shown) [Example 3] | 5.9 fold | 1.3 | 
3 | Cc1oc(-c2cccs2)nc1CCOc1ccc2c(c1)OCC(C(=O)O)C2 (stereo not shown) [Example 4, 7-[2-(5-methyl-2-thien-2-yl-1,3-oxazol-4-yl)ethoxy]chromane-3-carboxylic acid] | 7.6 fold | 1.5 | 
4 | O=C(O)C1COc2cc(OCCc3nc(-c4ccccc4)oc3-c3ccccc3)ccc2C1 (stereo not shown) [Example 5] | 8.1 fold | 1.7 | 
5 | Cc1oc(-c2ccccc2)nc1COc1ccc2c(c1)OCC(C(=O)O)C2 (stereo not shown) [Example 6, 7-[(2-phenyl-5-methyl-1,3-oxazol-4-yl)methoxy]chromane-3-carboxylic acid] | 10.7 fold | 1.4 | 
6 | Cc1oc(-c2ccccc2)nc1CCCOc1ccc2c(c1)OCC(C(=O)O)C2 (stereo not shown) [Example 7, 7-[3-(5-Methyl-2-phenyl-4-oxazolyl)propoxy]chromane-3-carboxylic acid] | 6.5 fold | 1.4 | 
7 | Cc1oc(-c2ccccc2)nc1CCOc1ccc2c(c1)OCC(C(=O)NS(=O)(=O)c1ccccc1)C2 (stereo not shown) [Example 8] | 8.8 fold | 1.5 | 
8 | Cc1oc(-c2ccccc2)nc1CCOc1ccc2c(c1)OCC(C(=O)NS(C)(=O)=O)C2 (stereo not shown) [Example 9] | 6.2 fold | 1.2 | 
9 | Cc1oc(-c2ccc(Br)cc2)nc1COc1ccc2c(c1)OCC(C(=O)O)C2 (stereo not shown) [Example 10, 7-[(2-(4-bromophenyl)-5-methyl-1,3-oxazol-4-yl)methoxy]chromane-3-carboxylic acid] | 5.1 fold | 1 | 
10 | Cc1oc(-c2ccc(-c3ccccc3)cc2)nc1COc1ccc2c(c1)OCC(C(=O)O)C2 (stereo not shown) [Example 11] | 4.6 fold | 1.3 | 
11 | COC(=O)C1COc2cc(OCCc3nc(-c4ccccc4)oc3C)ccc2C1 (stereo not shown) [Example 12, Methyl 7-[2-(5-Methyl-2-phenyl-4-oxazolyl)ethoxy]chromane-3-carboxylate] | 6.0 fold | 1.1 | 
12 | Cc1oc(-c2ccccc2)nc1CCOc1ccc2c(c1)OCC(C(N)=O)C2 (stereo not shown) [Example 13, 7-[2-(5-Methyl-2-phenyl-4-oxazolyl)ethoxy]chromane-3-carboxylic acid amide] | 8.8 fold | 1.7 | 
13 | Cc1oc(-c2ccccc2)nc1CCOc1ccc2c(c1)OCC(CC(=O)O)C2 (stereo not shown) [Example 14, {7-[2-(5-Methyl-2-phenyl-oxazol-4-yl)-ethoxy]-chroman-3-yl}-acetic acid] | 6.9 fold | 1.4 | 
14 | CCc1ccc(CCOc2ccc(CC3SC(=O)NC3=O)cc2)nc1 (stereo not shown) [Pioglitazone, reference compound] | 7.6 fold | 1.9 | 
